Our source for the MIC values is publication PMC10648927, “Examining the activity of cefepime-taniborbactam against Burkholderia cepacia complex and Burkholderia gladioli isolated from cystic fibrosis patients in the United States” (Antimicrobial Agents and Chemotherapy, 2023).

Parameters in all cases: agar dilution MIC, growth inhibition of clinical Burkholderia isolates
One assay concerns T1, B. multivorans AU30438.
T1 construct: AU30438
Put plainly: microbe, parasite or virus in culture. Particulars: Burkholderia multivorans, AU30438. The gist of the method:
(§1)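 MICs by agar dilution against Bcc and B. gladioli clinical isolates, interpreted with CLSI breakpoints where available; K. pneumoniae ATCC 700603 (SHV-18) and ATCC BAA-1705 (KPC) served as quality controls.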

In the next assay the test system is T2, B. multivorans AU26250.
T2 construct: AU26250
The assay is described as follows: microbe, parasite or virus in culture. The note with it: Burkholderia multivorans, AU26250. The gist of the method:
as §1

For another assay, the system named is T3, B. stabilis AU9035.
T3 construct: AU9035
Put plainly: microbe, parasite or virus in culture. The note with it: Burkholderia stabilis, AU9035. In a few lines: as §1

A further assay has as its system T4, B. cenocepacia AU11339.
T4 construct: AU11339
Put plainly: microbe, parasite or virus in culture. Particulars: Burkholderia cenocepacia, AU11339. The gist of the method:
as §1

For the next assay, the system named is T5, B. cenocepacia AU141094.
T5 construct: AU141094
Put plainly: microbe, parasite or virus in culture. The note with it: Burkholderia cenocepacia, AU141094. In a few lines: as §1

In the next assay the test system is T6, B. multivorans AU19659.
T6 construct: AU19659
Put plainly: microbe, parasite or virus in culture. Particulars: Burkholderia multivorans, AU19659. In a few lines: as §1

In a further assay the test system is T7, B. vietnamiensis AU3578.
T7 construct: AU3578
The assay is described as follows: microbe, parasite or virus in culture. Particulars: Burkholderia vietnamiensis, AU3578. The gist of the method: as §1

A further assay relates to T8, B. multivorans AU21015.
T8 construct: AU21015
The assay is described as follows: microbe, parasite or virus in culture. Particulars: Burkholderia multivorans, AU21015. In a few lines: as §1

The next assay relates to T9, B. gladioli AU1009.
T9 construct: AU1009
The assay is described as follows: organism not typed. In a few lines: as §1

The subject of the next assay is T10, B. vietnamiensis AU10214.
T10 construct: AU10214
Put plainly: microbe, parasite or virus in culture. The note with it: Burkholderia vietnamiensis, AU10214. In a few lines:
as §1

The subject of a further assay is T11, B. dolosa AU29985.
T11 construct: AU29985
The assay is described as follows: microbe, parasite or virus in culture. Particulars: Burkholderia dolosa, AU29985. In a few lines:
as §1

Another assay deals with T12, B. cenocepacia AU12659.
T12 construct: AU12659
Put plainly: microbe, parasite or virus in culture. Particulars: Burkholderia cenocepacia, AU12659. In a few lines:
as §1

For assay [1], the system named is T13, Burkholderia cepacia complex Bcc Indeterminate AU18117.
T13 construct: AU18117
Put plainly: microbe, parasite or virus in culture. The note with it: Burkholderia cepacia. The gist of the method:
as §1

Another assay deals with T14, B. cepacia AU15249.
T14 construct: AU15249
Put plainly: microbe, parasite or virus in culture. Particulars: Burkholderia cepacia, AU15249. The gist of the method:
as §1

A further assay relates to T15, B. multivorans AU10086.
T15 construct: AU10086
Put plainly: microbe, parasite or virus in culture. Particulars: Burkholderia multivorans, AU10086. The gist of the method:
as §1

The subject of a further assay is T16, B. cenocepacia AU12265.
T16 construct: AU12265
The assay is described as follows: microbe, parasite or virus in culture. The note with it: Burkholderia cenocepacia, AU12265. The gist of the method:
as §1

Another assay relates to T17, B. gladioli AU21101.
T17 construct: AU21101
The assay is described as follows: organism not typed. The gist of the method: as §1

A further assay has as its system T18, B. multivorans AU14371.
T18 construct: AU14371
Put plainly: microbe, parasite or virus in culture. The note with it: Burkholderia multivorans, AU14371. The gist of the method:
as §1

The test system of the next assay is T19, B. multivorans AU25626.
T19 construct: AU25626
Put plainly: microbe, parasite or virus in culture. The note with it: Burkholderia multivorans, AU25626. In a few lines:
as §1

Another assay deals with T20, B. cenocepacia AU17796.
T20 construct: AU17796
The assay is described as follows: microbe, parasite or virus in culture. Particulars: Burkholderia cenocepacia, AU17796. The gist of the method:
as §1

Another assay relates to T21, B. vietnamiensis AU28056.
T21 construct: AU28056
Put plainly: microbe, parasite or virus in culture. The note with it: Burkholderia vietnamiensis, AU28056. In a few lines: as §1

Another assay has as its system T22, B. multivorans AU15814.
T22 construct: AU15814
Put plainly: microbe, parasite or virus in culture. Particulars: Burkholderia multivorans, AU15814. In a few lines:
as §1

≈ marks a conversion by molar mass, not a printed value. Some results are limits rather than exact numbers.

With `CO/N=C(\C(=O)N[C@@H]1C(=O)N2C(C(=O)[O-])=C(C[N+]3(C)CCCC3)CS[C@H]12)c1csc(N)n1` [cefepime], the MIC with B. multivorans AU30438 was 16 µg/mL (≈ 33.3 µM); with B. multivorans AU26250 it was 4 µg/mL (≈ 8.32 µM); in the assay on B. stabilis AU9035, 32 µg/mL (≈ 66.6 µM); against B. cenocepacia AU11339, 16 µg/mL (≈ 33.3 µM); against B. cenocepacia AU141094, > 32 µg/mL; with B. multivorans AU19659 it was > 32 µg/mL. In addition, the MIC is > 32 µg/mL with B. vietnamiensis AU3578; > 32 µg/mL in the assay on B. multivorans AU21015; 16 µg/mL (≈ 33.3 µM) in the assay on B. gladioli AU1009; 8 µg/mL (≈ 16.6 µM) in the assay on B. vietnamiensis AU10214; > 32 µg/mL with B. dolosa AU29985; 16 µg/mL (≈ 33.3 µM) with B. cenocepacia AU12659. The MIC is > 32 µg/mL in assay [1]; 32 µg/mL (≈ 66.6 µM) against B. cepacia AU15249; 32 µg/mL (≈ 66.6 µM) against B. multivorans AU10086; 16 µg/mL (≈ 33.3 µM) in the assay with B. cenocepacia AU12265; 16 µg/mL (≈ 33.3 µM) in the assay with B. gladioli AU21101; 8 µg/mL (≈ 16.6 µM) in the assay with B. multivorans AU14371. Moreover, the MIC against B. multivorans AU25626 turned out to be 8 µg/mL (≈ 16.6 µM); in the assay on B. cenocepacia AU17796, 16 µg/mL (≈ 33.3 µM); in the assay on B. vietnamiensis AU28056, 16 µg/mL (≈ 33.3 µM); against B. multivorans AU15814 it was 32 µg/mL (≈ 66.6 µM).

As to `C[C@H]1COc2c(N3CCN(C)CC3)c(F)cc3c(=O)c(C(=O)O)cn1c23` [levofloxacin], the MIC in the assay on B. multivorans AU30438 was 4 µg/mL (≈ 11.1 µM); in the assay on B. multivorans AU26250, 2 µg/mL (≈ 5.53 µM); in the assay with B. stabilis AU9035, 16 µg/mL (≈ 44.3 µM); in the assay on B. cenocepacia AU11339 it was 2 µg/mL (≈ 5.53 µM); against B. cenocepacia AU141094, > 32 µg/mL; against B. multivorans AU19659 it was 16 µg/mL (≈ 44.3 µM). Besides, the MIC against B. vietnamiensis AU3578 was 8 µg/mL (≈ 22.1 µM); in the assay on B. multivorans AU21015 it was 32 µg/mL (≈ 88.6 µM); against B. gladioli AU1009 it was 0.5 µg/mL (≈ 1.38 µM); against B. vietnamiensis AU10214, 8 µg/mL (≈ 22.1 µM); with B. dolosa AU29985, > 32 µg/mL; with B. cenocepacia AU12659, 1 µg/mL (≈ 2.77 µM). The MIC in assay [1] is > 32 µg/mL; in the assay on B. cepacia AU15249 it was 4 µg/mL (≈ 11.1 µM); in the assay with B. multivorans AU10086, > 32 µg/mL; against B. cenocepacia AU12265, 4 µg/mL (≈ 11.1 µM); in the assay on B. gladioli AU21101 it was 1 µg/mL (≈ 2.77 µM); against B. multivorans AU14371, 2 µg/mL (≈ 5.53 µM). For the same compound, the MIC against B. multivorans AU25626 turned out to be 4 µg/mL (≈ 11.1 µM); against B. cenocepacia AU17796, 8 µg/mL (≈ 22.1 µM); with B. vietnamiensis AU28056 it was 8 µg/mL (≈ 22.1 µM); with B. multivorans AU15814 it was 16 µg/mL (≈ 44.3 µM).

As for `C[C@@H](O)[C@H]1C(=O)N2C(C(=O)O)=C(S[C@@H]3CN[C@H](C(=O)N(C)C)C3)[C@H](C)[C@H]12` [meropenem], the MIC came to 4 µg/mL (≈ 10.4 µM) in the assay on B. multivorans AU30438; 2 µg/mL (≈ 5.22 µM) against B. multivorans AU26250; 8 µg/mL (≈ 20.9 µM) against B. stabilis AU9035; 2 µg/mL (≈ 5.22 µM) in the assay on B. cenocepacia AU11339; 16 µg/mL (≈ 41.7 µM) in the assay on B. cenocepacia AU141094; 32 µg/mL (≈ 83.4 µM) with B. multivorans AU19659. For the same compound, the MIC against B. vietnamiensis AU3578 is 4 µg/mL (≈ 10.4 µM); in the assay with B. multivorans AU21015 it was 16 µg/mL (≈ 41.7 µM); with B. gladioli AU1009, 1 µg/mL (≈ 2.61 µM); against B. vietnamiensis AU10214, 0.5 µg/mL (≈ 1.3 µM); against B. dolosa AU29985, > 32 µg/mL; against B. cenocepacia AU12659 it was 4 µg/mL (≈ 10.4 µM). In addition, the MIC came to 8 µg/mL (≈ 20.9 µM) in assay [1]; 4 µg/mL (≈ 10.4 µM) against B. cepacia AU15249; 32 µg/mL (≈ 83.4 µM) in the assay with B. multivorans AU10086; 4 µg/mL (≈ 10.4 µM) in the assay with B. cenocepacia AU12265; 1 µg/mL (≈ 2.61 µM) in the assay with B. gladioli AU21101; 4 µg/mL (≈ 10.4 µM) against B. multivorans AU14371. The MIC against B. multivorans AU25626 was > 32 µg/mL; against B. cenocepacia AU17796 it was 4 µg/mL (≈ 10.4 µM); in the assay on B. vietnamiensis AU28056 it was 4 µg/mL (≈ 10.4 µM); in the assay with B. multivorans AU15814, > 32 µg/mL.
